According to the NIST ThermoML archive (doi:10.1016/j.tca.2015.03.023):
Numbers after ± are expanded uncertainties.

Legend:
[1] = 298.15 K, Liquid
[2] = mn = molality of the nth substance listed, in mol/kg; conditions: 298.15 K, 100 kPa, Liquid; for viscosity: Capillary tube (Ostwald / Ubbelohde) method; for speed of sound: Frequency=1 MHz, Linear variable-path acoustic interferometer; for mass density: Vibrating tube method; for molar conductivity: Alternating current cell with electrodes

`CNC=O` [N-methylformamide] gave a speed of sound ([1]; 100 kPa, Frequency=1 MHz, Linear variable-path acoustic interferometer) of 1430.3 ± 2.5 m/s, a viscosity ([1]; 101.33 kPa, Capillary tube (Ostwald / Ubbelohde) method) of 1.653 ± 0.034 mPa·s and a mass density ([1]; 101.33 kPa, Vibrating tube method) of 999.12 ± 1 kg/m3.
`CNC=O` [N-methylformamide] + [K+].[O-][Cl+3]([O-])([O-])[O-] showed a viscosity ([2]; m2 = 0) of 1.653 ± 0.034 mPa·s, a speed of sound ([2]; m2 = 0) of 1430.3 ± 2.5 m/s and a mass density ([2]; m2 = 0) of 999.12 ± 1 kg/m3.
`CNC=O` [N-methylformamide] + [Li+].[O-][Cl+3]([O-])([O-])[O-] gave a viscosity ([2]; m2 = 0) of 1.653 ± 0.034 mPa·s, a speed of sound ([2]; m2 = 0) of 1430.3 ± 2.5 m/s and a mass density ([2]; m2 = 0) of 999.12 ± 1 kg/m3.
Molecule `CNC=O` [N-methylformamide] + [Na+].[O-][Cl+3]([O-])([O-])[O-] has a viscosity ([2]; m2 = 0) of 1.653 ± 0.034 mPa·s, a speed of sound ([2]; m2 = 0) of 1430.3 ± 2.5 m/s and a mass density ([2]; m2 = 0) of 999.12 ± 1 kg/m3.
Molecule `[Li+].[O-][Cl+3]([O-])([O-])[O-]` [lithium perchlorate] + CNC=O has a molar conductivity ([2]; m1 = 0.0001214) of 0.000939 ± 0.0002 S·m2/mol, a molar conductivity ([2]; m1 = 0.0001462) of 0.000926 ± 0.0002 S·m2/mol and a molar conductivity ([2]; m1 = 0.0001817) of 0.000907 ± 0.0002 S·m2/mol. For the same molecule, the molar conductivity ([2]; m1 = 0.0002036) was 0.000895 ± 0.0002 S·m2/mol, the molar conductivity ([2]; m1 = 0.0002283) was 0.000879 ± 0.0002 S·m2/mol and the molar conductivity ([2]; m1 = 0.0002525) was 0.000875 ± 0.0002 S·m2/mol. For the same molecule, the molar conductivity ([2]; m1 = 0.0002752) was 0.000854 ± 0.0002 S·m2/mol, the molar conductivity ([2]; m1 = 0.0003) was 0.000841 ± 0.0002 S·m2/mol and the molar conductivity ([2]; m1 = 0.0003244) was 0.000831 ± 0.0002 S·m2/mol. For the same molecule, the molar conductivity ([2]; m1 = 0.0003557) was 0.000815 ± 0.0002 S·m2/mol, the molar conductivity ([2]; m1 = 0.0003756) was 0.000809 ± 0.0002 S·m2/mol and the molar conductivity ([2]; m1 = 0.0004004) was 0.000795 ± 0.0002 S·m2/mol. For the same molecule, the molar conductivity ([2]; m1 = 0.0004406) was 0.000783 ± 0.0002 S·m2/mol, the molar conductivity ([2]; m1 = 0.0004687) was 0.000769 ± 0.0002 S·m2/mol and the viscosity ([2]; m1 = 0.015) was 1.668 ± 0.035 mPa·s. The viscosity ([2]; m1 = 0.0301) was 1.682 ± 0.035 mPa·s, the viscosity ([2]; m1 = 0.0452) was 1.696 ± 0.035 mPa·s and the viscosity ([2]; m1 = 0.0603) was 1.71 ± 0.036 mPa·s. For the same molecule, the viscosity ([2]; m1 = 0.0755) was 1.725 ± 0.036 mPa·s, the viscosity ([2]; m1 = 0.0907) was 1.738 ± 0.036 mPa·s and the speed of sound ([2]; m1 = 0.015) was 1433.8 ± 2.5 m/s. The speed of sound ([2]; m1 = 0.0301) was 1447.3 ± 2.5 m/s, the speed of sound ([2]; m1 = 0.0452) was 1468.1 ± 2.5 m/s and the speed of sound ([2]; m1 = 0.0604) was 1494.8 ± 2.5 m/s. The speed of sound ([2]; m1 = 0.0755) was 1529.4 ± 2.6 m/s, the speed of sound ([2]; m1 = 0.0907) was 1569.9 ± 2.6 m/s and the mass density ([2]; m1 = 0.015) was 999.44 ± 1 kg/m3. For the same molecule, the mass density ([2]; m1 = 0.0301) was 999.85 ± 1 kg/m3, the mass density ([2]; m1 = 0.0452) was 1000.33 ± 1 kg/m3 and the mass density ([2]; m1 = 0.0603) was 1000.86 ± 1 kg/m3. For the same molecule, the mass density ([2]; m1 = 0.0755) was 1001.44 ± 1 kg/m3 and the mass density ([2]; m1 = 0.0907) was 1002.06 ± 1 kg/m3.
Molecule `[K+].[O-][Cl+3]([O-])([O-])[O-]` [potassium perchlorate] + CNC=O has a molar conductivity ([2]; m1 = 0.0004439) of 0.00119 ± 0.0002 S·m2/mol, a molar conductivity ([2]; m1 = 0.0005285) of 0.00117 ± 0.0002 S·m2/mol and a molar conductivity ([2]; m1 = 0.0006265) of 0.00115 ± 0.0002 S·m2/mol. It also gave a molar conductivity ([2]; m1 = 0.0006838) of 0.00113 ± 0.0002 S·m2/mol, a molar conductivity ([2]; m1 = 0.000722) of 0.00113 ± 0.0002 S·m2/mol and a molar conductivity ([2]; m1 = 0.0007846) of 0.00112 ± 0.0002 S·m2/mol. The molar conductivity ([2]; m1 = 0.0008474) was 0.00112 ± 0.0002 S·m2/mol, the molar conductivity ([2]; m1 = 0.0009126) was 0.0011 ± 0.0002 S·m2/mol and the molar conductivity ([2]; m1 = 0.0009685) was 0.00109 ± 0.0002 S·m2/mol. The molar conductivity ([2]; m1 = 0.001057) was 0.00108 ± 0.0002 S·m2/mol, the molar conductivity ([2]; m1 = 0.001149) was 0.00106 ± 0.0002 S·m2/mol and the molar conductivity ([2]; m1 = 0.001216) was 0.00105 ± 0.0002 S·m2/mol. For the same molecule, the molar conductivity ([2]; m1 = 0.00129) was 0.00103 ± 0.0002 S·m2/mol, the molar conductivity ([2]; m1 = 0.001359) was 0.00103 ± 0.0002 S·m2/mol and the viscosity ([2]; m1 = 0.0153) was 1.66 ± 0.035 mPa·s. For the same molecule, the viscosity ([2]; m1 = 0.0304) was 1.665 ± 0.035 mPa·s, the viscosity ([2]; m1 = 0.0457) was 1.669 ± 0.035 mPa·s and the viscosity ([2]; m1 = 0.0609) was 1.674 ± 0.035 mPa·s. For the same molecule, the viscosity ([2]; m1 = 0.0759) was 1.677 ± 0.035 mPa·s, the viscosity ([2]; m1 = 0.0911) was 1.681 ± 0.035 mPa·s and the speed of sound ([2]; m1 = 0.0153) was 1435.8 ± 2.5 m/s. The speed of sound ([2]; m1 = 0.0304) was 1449.9 ± 2.5 m/s, the speed of sound ([2]; m1 = 0.0457) was 1471.8 ± 2.5 m/s and the speed of sound ([2]; m1 = 0.0609) was 1499.7 ± 2.5 m/s. The speed of sound ([2]; m1 = 0.0759) was 1533.7 ± 2.6 m/s, the speed of sound ([2]; m1 = 0.0911) was 1577.6 ± 2.6 m/s and the mass density ([2]; m1 = 0.0153) was 1000.04 ± 1 kg/m3. It also gave a mass density ([2]; m1 = 0.0304) of 1001.02 ± 1 kg/m3, a mass density ([2]; m1 = 0.0457) of 1002.07 ± 1 kg/m3 and a mass density ([2]; m1 = 0.0609) of 1003.15 ± 1 kg/m3. It also gave a mass density ([2]; m1 = 0.0759) of 1004.25 ± 1 kg/m3 and a mass density ([2]; m1 = 0.0911) of 1005.39 ± 1 kg/m3.
Molecule `[Na+].[O-][Cl+3]([O-])([O-])[O-]` [sodium perchlorate] + CNC=O has a molar conductivity ([2]; m1 = 0.0001833) of 0.00113 ± 0.0002 S·m2/mol, a molar conductivity ([2]; m1 = 0.0002554) of 0.00111 ± 0.0002 S·m2/mol and a molar conductivity ([2]; m1 = 0.0003247) of 0.00109 ± 0.0002 S·m2/mol. The molar conductivity ([2]; m1 = 0.0003795) was 0.00107 ± 0.0002 S·m2/mol, the molar conductivity ([2]; m1 = 0.0004397) was 0.00105 ± 0.0002 S·m2/mol and the molar conductivity ([2]; m1 = 0.0005067) was 0.00103 ± 0.0002 S·m2/mol. It also gave a molar conductivity ([2]; m1 = 0.0005588) of 0.00101 ± 0.0002 S·m2/mol, a molar conductivity ([2]; m1 = 0.000621) of 0.00099 ± 0.0002 S·m2/mol and a molar conductivity ([2]; m1 = 0.0006765) of 0.000978 ± 0.0002 S·m2/mol. For the same molecule, the molar conductivity ([2]; m1 = 0.0007431) was 0.000963 ± 0.0002 S·m2/mol, the molar conductivity ([2]; m1 = 0.0007846) was 0.000956 ± 0.0002 S·m2/mol and the molar conductivity ([2]; m1 = 0.000822) was 0.000947 ± 0.0002 S·m2/mol. It also gave a molar conductivity ([2]; m1 = 0.0008833) of 0.000925 ± 0.0002 S·m2/mol, a molar conductivity ([2]; m1 = 0.0009622) of 0.000906 ± 0.0002 S·m2/mol and a viscosity ([2]; m1 = 0.0145) of 1.664 ± 0.035 mPa·s. It also gave a viscosity ([2]; m1 = 0.0298) of 1.674 ± 0.035 mPa·s, a viscosity ([2]; m1 = 0.0448) of 1.683 ± 0.035 mPa·s and a viscosity ([2]; m1 = 0.0599) of 1.692 ± 0.035 mPa·s. For the same molecule, the viscosity ([2]; m1 = 0.0751) was 1.702 ± 0.035 mPa·s, the viscosity ([2]; m1 = 0.0902) was 1.711 ± 0.036 mPa·s and the speed of sound ([2]; m1 = 0.0145) was 1434.9 ± 2.5 m/s. The speed of sound ([2]; m1 = 0.0298) was 1449.6 ± 2.5 m/s, the speed of sound ([2]; m1 = 0.0448) was 1470.8 ± 2.5 m/s and the speed of sound ([2]; m1 = 0.0599) was 1499.1 ± 2.5 m/s. For the same molecule, the speed of sound ([2]; m1 = 0.0751) was 1534.9 ± 2.6 m/s, the speed of sound ([2]; m1 = 0.0902) was 1576.7 ± 2.6 m/s and the mass density ([2]; m1 = 0.0145) was 999.72 ± 1 kg/m3. It also gave a mass density ([2]; m1 = 0.0298) of 1000.43 ± 1 kg/m3, a mass density ([2]; m1 = 0.0448) of 1001.19 ± 1 kg/m3 and a mass density ([2]; m1 = 0.0599) of 1001.99 ± 1 kg/m3. For the same molecule, the mass density ([2]; m1 = 0.0751) was 1002.84 ± 1 kg/m3 and the mass density ([2]; m1 = 0.0902) was 1003.73 ± 1 kg/m3.
